# According to patent US7307085B2, “Mitotic kinesin inhibitors” (Merck & Co., Inc., priority 2003, dated 2007):
# Biological target: T1, human KSP motor domain (KSP(367H)) (Homo sapiens, UniProt P52732)
# T1 construct: were used to amplify the motor domain and the neck linker region; made in house; host or cells: E. coli BL21 (DE3)
# T1 sequence (P52732 18-359 limits assumed): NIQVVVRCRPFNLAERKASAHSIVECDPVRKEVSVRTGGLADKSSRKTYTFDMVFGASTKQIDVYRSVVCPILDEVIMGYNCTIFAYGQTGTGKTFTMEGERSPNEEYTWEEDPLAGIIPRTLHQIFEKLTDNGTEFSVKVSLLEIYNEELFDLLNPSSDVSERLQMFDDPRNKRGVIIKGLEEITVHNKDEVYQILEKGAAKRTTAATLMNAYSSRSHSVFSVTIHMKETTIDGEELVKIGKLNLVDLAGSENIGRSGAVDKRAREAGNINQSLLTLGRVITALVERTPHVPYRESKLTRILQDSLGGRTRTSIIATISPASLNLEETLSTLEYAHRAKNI
# Assay: Kinesin ATPase In Vitro Assay
# Format: biochemical
# Conditions: human poly-histidine tagged KSP motor domain with microtubules, 1 mM ATP, 23° C.
# Source text: I. Kinesin ATPase In Vitro Assay
# Cloning and Expression of Human Poly-Histidine Tagged KSP Motor Domain_(KSP(367H))
# Plasmids for the expression of the human KSP motor domain construct were cloned by PCR using a pBluescript full length human KSP construct (Blangy et al., Cell, vol. 83, pp 1159-1169, 1995) as a template. The N-terminal primer 5′-[…] (SEQ.ID.NO.: 1) and the C-terminal primer 5′-[…] […]lCAGGCTTATTCAATAT (SEQ.D.NO.: 2) were used to amplify the motor domain and the neck linker region. The PCR products were digested with AseI and XhoI, ligated into the NdeI/XhoI digestion product of pRSETa (Invitrogen) and transformed into E. coli BL21 (DE3).
# Cells were grown at 37° C. to an OD600 of 0.5. […]
# The kinesin motor domain is incubated with microtubules, 1 mM ATP (1:1 MgCl2: Na-ATP), and compound at 23° C. in buffer containing 80 mM K-HEPES (pH 7.0), 1 mM EGTA, 1 mM DTT, 1 mM MgCl2, and 50 mM KCl. […] Free phosphate from the ATP hydrolysis reaction is measured via a quinaldine redlammonium molybdate assay by adding a […] volume of quench C (e.g., to a mixture of 40 μl reaction volume+40 μl stop buffer is then added 120 μl quench C). […] Quench C is a 2:1 ratio of quench A:quench B The reaction is incubated for 5-10 minutes at 23° C., and the absorbance of the phospho-molybdate complex is measured at 540 nm.
row,IC50 [µM],Structure (SMILES)
1,≤ 50,"O=C1CC[C@@H]2CC(c3cc(F)ccc3F)=C[C@@H](c3ccccc3)N12 [1-5, (−)-(5S,8aR)-7-(2,5-difluorophenyl)-5-phenyl-1,5,8,8a-tetrahydroindolizin-3(2H)-one]"
2,≤ 50,"O=C1CC[C@@H]2C=C(c3cc(F)ccc3F)C[C@@H](c3ccccc3)N12 [1-6, (+)-(5S,8aR)-7-(2,5-difluorophenyl)-5-phenyl-1,5,6,8a-tetrahydroindolizin-3(2H)-one]"
